# Data taken from patent US9901592B2 (priority 2008, dated 2018).
# Assays:
# [1] = tested on: S. pneumoniae; assay: neutropenic mouse thigh infection; type: in vivo; conditions: PO
# Protocol: Example. Neutropenic Mouse Thigh Infection. Mice were rendered neutropenic with IP injections of cyclophosamide at day −4 and day −1 of 150 mg/Kg and 100 mg/Kg, respectively. On day 0 mice were infected with approximately 5×10^5 CFU/ml of bacteria in a 0.1 ml volume into the right thigh. At 1.5 hours post infection mice received treatment via oral gavage. One group of infected mice were euthanized and thigh processed for bacterial titers to serve as T=0 controls. Twenty-four hours post treatment, the remaining mice were euthanized, thighs aseptically removed, weighed, homogenized, serially diluted and plated on bacterial growth media. CFUs per gram of thigh were calculated after overnight incubation of bacterial plates. The amount of test article required to achieve 1, 2, and 3 loge reductions from 24 hour control thighs were calculated. Additional studies were performed that fractionated the single treatment dose (Q24) into two (Q12), three (Q8) and four (Q6) equivalent doses to determine the pharmacodynamic nature of this compound. Further analysis includes static dose, EC50, 1 log kill and maximal effect (Emax).
# [2] = tested on: S. pyogenes; assay: mouse systemic infection model (PD50); type: in vivo
# [3] = tested on: streptococci; assay: organism not typed; type: cell-based
# [4] = tested on: S. pyogenes ATCC 8668; assay: mouse subcutaneous abscess model; type: in vivo; conditions: 48 hr. post infection
# Protocol: Example. Mouse Subcutaneous Abscess. Bacteria were prepared from an overnight plate culture by re-suspending in saline and adjusting the suspension to a 0.1 OD at 625 nm of a 1:10 dilution. The adjusted bacterial suspension was mixed 1:2 with cyclodextran beads prepared as per package instructions. The right flanks of the mice were shaven and injected subcutaneously with 0.2 ml of the bacterial inoculum. Two hours post infection mice were treated via oral gavage with either test article or control drug. 48 hours post infection, mice were euthanized, abscesses aseptically removed, homogenized, serially diluted and plated on bacterial growth agar. After overnight incubation, colonies were counted and CFUs/gram of abscess were determined.
# Example. Mouse Subcutaneous Abscess˜S. pyogenes ATCC 8668 (Average Log10 CFU/gram of Abscess). Abscess processing 48 hours post infection.
# [5] = tested on: M. genitalium; type: cell-based; conditions: M. genitalium (5 isolates)
# [6] = tested on: N. meningitidis; assay: MIC, CLSI broth microdilution, invasive isolates; type: cell-based; conditions: Neisseria meningitidis; 62 N. meningitidis isolates
# Protocol: Example. […] Colonization of the nasopharynx (NP) by NM can lead to invasive meningococcal disease. Chemoprophylaxis is used to eradicate NP colonization and prevent transmission to nonimmune contacts. […] 62 isolates (91.9% blood culture) of NM were collected from 29 medical centers in North and South America and Europe (1997-2008). […] Serological identification was performed for serogroups (SGs) B, C, Y and W135.
# [7] = tested on: M. fermentans; type: cell-based; conditions: M. fermentans (15 isolates)
# [8] = tested on: viridans group streptococci (VGS); type: cell-based; conditions: VGS (51)
# [9] = tested on: H. influenzae ATCC 49247; assay: post-antibiotic effect (PAE) testing
# [10] = tested on: M. hominis; type: cell-based; conditions: M. hominis (13 isolates)
# [11] = tested on: S. pyogenes; assay: MIC of the strains of the mouse systemic infection model; type: cell-based; conditions: Streptococcus pyogenes
# [12] = S. pyogenes (macrolide susceptible)
structure (smiles),measurement,setting,value
"CC[C@H]1OC(=O)[C@@](C)(F)C(=O)[C@H](C)[C@@H](OC2OC(C)CC(N(C)C)C2O)[C@@](C)(OC)C[C@@H](C)C(=O)[C@H](C)[C@H]2N(CCCCn3cc(-c4cccc(N)c4)nn3)C(=O)O[C@]12C (stereo partly drawn) [CEM-101, 11-N-4-(3-aminophenyl)-[1,2,3]triazol-1-yl]-butyl}-5-desosaminyl-3-oxo-2-fluoro-erythronolide A,-11,12-cyclic carbamate]",Max. change in log10CFUs from 24 hr. controls,[1]; S. pneumoniae 1629,−5.81 log10CFUs
same,Dose for 2 log10 Reduction from 24 hour controls,"[1]; S. pneumoniae 1629, QD",7.0 mg/Kg
same,Max. change in log10CFUs from 24 hr. controls,[1]; S. pneumoniae 6303,−6.17 log10CFUs
same,Emax,"[1]; S. pneumoniae 6303, Q6",5.83 log10CFU/thigh
same,EC50,"[1]; S. pneumoniae 6303, Q8",9.0 mg/kg
same,EC50,"[1]; S. pneumoniae 6303, Q12",14.5 mg/kg
same,Emax,"[1]; S. pneumoniae 6303, Q12",4.95 log10CFU/thigh
same,1 log kill,"[1]; S. pneumoniae 6303, Q24",10.8 mg/Kg
same,EC50,"[1]; S. pneumoniae 6303, Q24",5.7 mg/kg
same,PD50,[2]; S. pyogenes (erythromycin R),5.1 mg/kg
same,PD50,[2]; [12],9.4 mg/kg
same,MIC,[3],0.06 µg/mL
same,Average Log10 CFU/gram of Abscess,[4]; 10 mg/Kg,5.35 Log10 CFU/gram
same,Average Log10 CFU/gram of Abscess,[4]; 20 mg/Kg,2.53 Log10 CFU/gram
same,MIC Range,[5],≦0.000032 μg/mL
same,MIC50,[6],≤ 0.015 µg/mL
same,MIC90,[6],≤ 0.015 µg/mL
same,MIC Range,[7],≦0.008 μg/mL
same,MIC50,[7]; Mycoplasmopsis fermentans,≤ 0.008 µg/mL
same,MIC90,[7]; Mycoplasmopsis fermentans,≤ 0.008 µg/mL
same,MIC50,[8],≤ 0.008 µg/mL
same,MIC90,[8],0.06 µg/mL
same,MIC Range,[8],≦0.008-0.12 μg/ml
same,average PAE,[9]; Gram-negative pathogens,4.5 h
same,PAE,"[9]; H. influenzae ATCC 49247, 4X MIC, exposure 1 hour",3.2 h
same,MIC Range,[10],0.002 to 0.008 µg/mL
same,MIC50,"[10]; Metamycoplasma hominis, read-out: MIC50",0.004 µg/mL
same,MIC90,"[10]; Metamycoplasma hominis, read-out: MIC90",0.008 µg/mL
same,MIC,[11]; S. pyogenes (erythromycin R),1 µg/mL
same,MIC,[11]; [12],0.015 µg/mL
